# Results: patent US20230099229A1, “METHODS OF TREATING MULTIPLE SCLEROSIS” (REPRISE PHARMACEUTICALS, INC., priority 2020, published 2023)
# Counter-ions that a name gives are not always drawn.
# Tested on: Experimental allergic encephalitis (EAE) in female C57BL/6 mice
# Experiment: EAE model in C57BL/6 mice, daily neurological clinical score (Example 2)
# Format: in vivo, mouse
# Details: C57BL/6 mice treated from clinical score 2 for 28 days; DMF 15 mg/kg BID, GCZ 5 mg/kg BID, alone or combined; compared to vehicle control and single agents
# Procedure: Experimental allergic encephalitis (EAE) is induced in female C57BL/6 mice (10 weeks old) by subcutaneous injection in the flank regions (left and right sides) with 200 μl total of an emulsion of MOG35-55 peptide (200 μg in 100 μl phosphate buffered saline plus 100 μl of complete Freund's adjuvant containing […] of heat-inactivated Mycobacterium tuberculosis). Each mouse then receives 200 ng of pertussis toxin intraperitoneally (IP) on the day of immunization (day 0) and then again 48 h later (day 2). Neurological assessments are reported using a five-point standardized rating scale to evaluate motor deficit: 0, no deficit; 1, tail paralysis; 2, unilateral hind limb weakness; 3, incomplete bilateral hind limb paralysis and/or partial forelimb weakness; 4, complete hind limb paralysis and partial forelimb weakness; 5, moribund state or death.
# The DMF is prepared as a suspension (15 mg/ml) in 0.8% hydroxypropyl methylcellulose (HPMC) weekly and kept at 4° C. under constant stirring. DMF is diluted into 200 μl HPMC, corresponding to a dose of 15 mg/kg body weight, and is administered twice daily (30 mg/kg/day) by oral gavage through a bulb-tipped curved gastric gavage needle by trained operators.
# Experimental allergic encephalitis (EAE) was induced in female C57BL/6 mice as described in Example 1. […]
row,Structure (SMILES),"EAE clinical scores (five-point motor deficit scale 0-5), fitted regression curves"
1,"COC(=O)/C=C/C(=O)OC [DMF, dimethyl fumarate]",no observed difference
2,"Cc1ccc(S(=O)(=O)NC(=O)NN2CC3CCCC3C2)cc1 (centres unmarked) [GCZ, gliclazide]",no observed difference
